Source: paper PMC5602538, “Assessment of the Drug Interaction Potential of Unconjugated and GalNAc3-Conjugated 2′-MOE-ASOs” (Molecular Therapy. Nucleic Acids, 2017)
{GalNAc3} = trishexylamino-C6 triantennary GalNAc conjugate; e = 2'-O-(2-methoxyethyl) (MOE); d = 2'-deoxy (DNA)

Assays:
Type in all cases: in vitro ADME
OCT1 = test system: T1, OCT1; experiment: OCT1 substrate uptake study in MDCK cells; conditions: 10 μM ASO
T1 construct: expressed in transfected cells; host or cells: MDCK-II
Protocol: (§1) A 96-well cell culture plate containing a monolayer of MDCK-II cells grown on a permeable support and a corresponding receiver tray was used. The basolateral compartment of the culture plate and wells were washed with warm HBSS three times, with wells of the culture plate serving as the apical compartment. The wash was aspirated by adding 150 μL of 37°C HBSS to both compartments. Plates were incubated at 37°C with orbital shaking at 60 rpm for 15 min for OAT1, OAT3, OCT1, OCT2, OATP1B1, and OATP1B3 (±5 min). The pre-incubation buffer from both compartments was aspirated and 150 μL of the following was added to the basal compartment. For the probe substrate transport assay, HBSS in each well contained one of following probe substrates (positive control for transport), OCT1, 2 μM [^3H]-MPP^+; OCT2, 10 μM [^14C]-metformin; OAT1, 2 μM [^3H]-p-aminohippurate; OAT3, 10 μM [^3H]-p-aminohippurate; OATP1B1, 2 μM [^3H]-estradiol-17 β-D-glucuronide; and OATP1B3, 2 μM [^3H]-cholecystokinin octapeptide (CCK-8). […] Inhibition studies contained HBSS in each well, the probe substrate, and 100 μM of each test article, whereas substrate studies contained HBSS in each well and 10 μM of each test article. […] Samples containing probe substrate were added to 200 μL of scintillation fluid and counted on a 1450 Microbeta (PerkinElmer), whereas samples containing the test article were kept frozen. Test article concentrations, including control samples, were evaluated by an LC-MS method.
(§2) Signal to noise for probe substrates was calculated by dividing the uptake of the probe substrate in transporter-expressing cells by the uptake of probe substrate in control cells not expressing the transporter of interest. Percent inhibition was calculated by dividing the net-transporter-mediated substrate uptake in the presence of the test article or the reference inhibitor by the net-transporter-mediated substrate uptake in the absence of the inhibitor according to the equation: %inhibition=100−(100×(transporter-mediateduptake)withinhibitor/(transporter-mediateduptake)withoutinhibitor).

OATP1B1 = test system: T2, OATP1B1; experiment: OATP1B1 substrate uptake study in MDCK cells; conditions: 10 μM ASO
T2 construct: expressed in transfected cells; host or cells: MDCK-II
Protocol: as §1, §2

OAT3 = test system: T3, OAT3; experiment: OAT3 substrate uptake study in MDCK cells; conditions: 10 μM ASO
T3 construct: expressed in transfected cells; host or cells: MDCK-II
Protocol: as §1, §2

[1] = test system: OAT1, OAT3, OCT1, OCT2, OATP1B1, OATP1B3, BCRP, P-gp, and BSEP; experiment: Inhibition studies of major SLC and ABC transporters, all transporters evaluated; conditions: 100 μM ASO
Protocol: A 96-well cell culture plate containing a monolayer of MDCK-II cells grown on a permeable support and a corresponding receiver tray was used. The basolateral compartment of the culture plate and wells were washed with warm HBSS three times, with wells of the culture plate serving as the apical compartment. The wash was aspirated by adding 150 μL of 37°C HBSS to both compartments. Plates were incubated at 37°C with orbital shaking at 60 rpm for 15 min for OAT1, OAT3, OCT1, OCT2, OATP1B1, and OATP1B3 (±5 min). The pre-incubation buffer from both compartments was aspirated and 150 μL of the following was added to the basal compartment. For the probe substrate transport assay, HBSS in each well contained one of following probe substrates (positive control for transport), OCT1, 2 μM [^3H]-MPP^+; OCT2, 10 μM [^14C]-metformin; OAT1, 2 μM [^3H]-p-aminohippurate; OAT3, 10 μM [^3H]-p-aminohippurate; OATP1B1, 2 μM [^3H]-estradiol-17 β-D-glucuronide; and OATP1B3, 2 μM [^3H]-cholecystokinin octapeptide (CCK-8). […] Inhibition studies contained HBSS in each well, the probe substrate, and 100 μM of each test article, whereas substrate studies contained HBSS in each well and 10 μM of each test article. Plates were incubated at 37°C with orbital shaking at 60 rpm for 5 min. Both sides of the permeable support were washed four times with ice-cold PBS and 60 μL of cell extraction solution was added to each well. Plates were agitated for 15 min at 120 rpm, after which a 30-μL sample of the extract was collected. Samples containing probe substrate were added to 200 μL of scintillation fluid and counted on a 1450 Microbeta (PerkinElmer), whereas samples containing the test article were kept frozen. Test article concentrations, including control samples, were evaluated by an LC-MS method.
MDCK-MDR1 cells and MDCK-II cells transfected with BCRP were washed with HBSS at 37°C. Wells of the culture plate served as the apical compartment, and 150 μL of HBSS solutions was added to the apical wells. […]

OATP1B3 = test system: T4, OATP1B3; experiment: OATP1B3 substrate uptake study in MDCK cells; conditions: 10 μM ASO
T4 construct: expressed in transfected cells; host or cells: MDCK-II
Protocol: as §1, §2

OCT2 = test system: T5, OCT2; experiment: OCT2 substrate uptake study in MDCK cells; conditions: 10 μM ASO
T5 construct: expressed in transfected cells; host or cells: MDCK-II
Protocol: as §1, §2

**Q.** Which results are given for “ISIS 304801: 20-mer (5-10-5) 2′-MOE gapmer PS backbone antisense inhibitor of apoC-III, sequence AGCTTCTTGTCCAGCTTTAT (sugars from the 5' end e5 d10 e5, all phosphorothioate, methylation of C not given here)”?
**A.** OCT1-mediated uptake relative to corresponding controls (OCT1): < 2 fold; OATP1B1-mediated uptake relative to corresponding controls (OATP1B1): < 2 fold; OAT3-mediated uptake relative to corresponding controls (OAT3): < 2 fold; Inhibitor of BCRP, P-gp, OAT1, OAT3, OCT1, OCT2, OATP1B1, OATP1B3, or BSEP (conclusion) [1]: not considered inhibitors; OATP1B3-mediated uptake relative to corresponding controls (OATP1B3): < 2 fold; OCT2-mediated uptake relative to corresponding controls (OCT2): < 2 fold

**Q.** “ISIS 681257: 20-mer 2′-MOE gapmer PS/PO mixed backbone ASO conjugated to 5′-trishexylamino GalNAc3, targets Lp(a), sequence TGCTCCGTTGGTGCTTGTTC (5' {GalNAc3}, sugars by position and backbone not given here; 2'-MOE gapmer with mixed PS/PO backbone)” was tested. Which “OCT1-mediated uptake relative to corresponding controls” value (OCT1) did it give?
**A.** < 2 fold

**Q.** And the “OATP1B1-mediated uptake relative to corresponding controls” value (OATP1B1)?
**A.** < 2 fold

**Q.** And the “OAT3-mediated uptake relative to corresponding controls” value (OAT3)?
**A.** < 2 fold

**Q.** And the “Inhibitor of BCRP, P-gp, OAT1, OAT3, OCT1, OCT2, OATP1B1, OATP1B3, or BSEP (conclusion)” value [1]?
**A.** not considered inhibitors

**Q.** And the “OATP1B3-mediated uptake relative to corresponding controls” value (OATP1B3)?
**A.** < 2 fold

**Q.** And the “OCT2-mediated uptake relative to corresponding controls” value (OCT2)?
**A.** < 2 fold

**Q.** Which results are given for “ISIS 420915: 20-mer 2′-MOE gapmer PS backbone antisense inhibitor of transthyretin, sequence TCTTGGTTACATGAAATCCC (all phosphorothioate, sugars by position and methylation of C not given here; 2'-MOE gapmer)”?
**A.** OCT1-mediated uptake relative to corresponding controls (OCT1): < 2 fold; OATP1B1-mediated uptake relative to corresponding controls (OATP1B1): < 2 fold; OAT3-mediated uptake relative to corresponding controls (OAT3): < 2 fold; Inhibitor of BCRP, P-gp, OAT1, OAT3, OCT1, OCT2, OATP1B1, OATP1B3, or BSEP (conclusion) [1]: not considered inhibitors; OATP1B3-mediated uptake relative to corresponding controls (OATP1B3): < 2 fold; OCT2-mediated uptake relative to corresponding controls (OCT2): < 2 fold
